# Results taken from patent US20250026769A1, “PAPD5 INHIBITORS AND METHODS OF USE THEREOF” (The Children's Medical Center Corporation, priority 2021, published 2025).
# Read-outs that look alike come from different tables or passages of the source.
# Tests used:
# [1] = system: TERC 3′ end processing in DC patient iPSCs; experiment: TERC 3′ end processing by RACE in DC patient / PARN-mutant iPSCs; assay type: cell-based, human; details: for minimal effective concentration: Homo sapiens, iPSC, patient iPSCs, concentration class at which activity is seen, read-out: iPSC-based RACE activity
# Procedure: (§1) Compound 266A had activity ˜2-logs higher in the in vitro RNA oligoadenylation assay compared to the parental compound cmpd. 1, approximating the activity of RG7834 (FIG. 7). […] 1. Compounds 295A and 296A had activity 2-3 logs higher in DC patient iPSCs, showing TERC maturation at 1 nM, similar to RG7834 (FIG. 6). […] Referring to Table 1D, “+” refers to activity at 1 μM, “++” refers to activity above 1 nM and below 1 μM, and “+++” refers to activity at <1 nM, “ND” refers to not determined.
# [2] = system: telomere length in DC patient iPSCs; experiment: telomere length / telomere elongation in DC patient iPSCs; assay type: cell-based, human; details: for concentration at which telomere elongation was observed: DC patient iPSCs, after 3-4 weeks of cell culture; for minimal effective concentration: Homo sapiens, iPSC, patient iPSCs, concentration class at which activity is seen, read-out: iPSC-based Telomere length
# Procedure: as §1
# [3] = system: hepatitis B surface antigen (HBSAg) from HepG2.2.15 cells, a hepatitis B virus-expressing cell line; experiment: HBsAg ELISA in supernatant of HepG2.2.15 cells; assay type: cell-based; details: HepG2.2.15, 96 h
# Procedure: HepG2.2.15 cells, a hepatitis B virus-expressing cell line (Sells, M. A. et al., PNAS, 1987), were plated at 50,000 cells/well in DMEM/F12 media (Gibco) with 10% fetal bovine serum (Omega Scientific) in a 24-well or 96-well plate (Corning), in 2-3 replicates for each test compound/concentration plus controls, and incubated in a humidified 5% CO2 chamber at 37° C. The next day, media was aspirated, cells were washed once with phosphate buffered saline, pH7.4 (Gibco), and 1 mL DMEM/12 media was replaced. Test compounds were added in 3-fold dilutions from up to 100 μM down to 333 pM, with vehicle (dimethylsulfoxide (Sigma)) as a control. After four days of culture in a humidified 5% CO2 chamber at 37° C., plates were spun down in a centrifuge at 300 g for 10 minutes at room temperature. Supernatant from each well was collected and either frozen at −20° C. or used directly for quantitation of hepatitis B surface antigen (HBSAg) in an enzyme-linked immunosorbent assay (ELISA). The supernatant was tested using the HBSAg ELISA kit (Abnova Cat. No KA0286) per the manufacturer's instructions. Results of replicates were averaged and nonlinear curve fitting was used to determine the half maximal inhibitory concentration (IC50) for each test compound.
# rPAPD5 = molecular target: T1, rPAPD5 (Homo sapiens, UniProt Q8NDF8); experiment: differential scanning fluorimetry (DSF) binding and stabilization of rPAPD5; details: for ΔTm at 100 µM: 100 μM test compound, read-out: ΔTm at 100 μM; for ΔTm at 1 µM: 1 μM test compound (Table 2a), read-out: ΔTm at 1 μM
# T1 construct: made in house
# Procedure, shortened: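 Compound-induced shifts in rPAPD5 melting temperature were determined by thermal shift (DSF). Protein at […] was mixed with a non-extendable ATP analog […] in Tris-HCl (25 mM), MgCl2 (5 mM) and KCl (50 mM), with SYPRO orange at 1:5000. Curves were averages of three measurements analyzed with Thermal Shift software, and ΔTm was referenced to DMSO.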
# [4] = 10 μM test compound (Table 2a), read-out: ΔTm at 10 μM
# [5] = 10 μM test compound, shift vs DMSO control, read-out: ΔTm (Table 2, starred: the compound was tested at 10 μM)
# T1 sequence (Q8NDF8 68-698 isoform Q8NDF8-5 limits assumed): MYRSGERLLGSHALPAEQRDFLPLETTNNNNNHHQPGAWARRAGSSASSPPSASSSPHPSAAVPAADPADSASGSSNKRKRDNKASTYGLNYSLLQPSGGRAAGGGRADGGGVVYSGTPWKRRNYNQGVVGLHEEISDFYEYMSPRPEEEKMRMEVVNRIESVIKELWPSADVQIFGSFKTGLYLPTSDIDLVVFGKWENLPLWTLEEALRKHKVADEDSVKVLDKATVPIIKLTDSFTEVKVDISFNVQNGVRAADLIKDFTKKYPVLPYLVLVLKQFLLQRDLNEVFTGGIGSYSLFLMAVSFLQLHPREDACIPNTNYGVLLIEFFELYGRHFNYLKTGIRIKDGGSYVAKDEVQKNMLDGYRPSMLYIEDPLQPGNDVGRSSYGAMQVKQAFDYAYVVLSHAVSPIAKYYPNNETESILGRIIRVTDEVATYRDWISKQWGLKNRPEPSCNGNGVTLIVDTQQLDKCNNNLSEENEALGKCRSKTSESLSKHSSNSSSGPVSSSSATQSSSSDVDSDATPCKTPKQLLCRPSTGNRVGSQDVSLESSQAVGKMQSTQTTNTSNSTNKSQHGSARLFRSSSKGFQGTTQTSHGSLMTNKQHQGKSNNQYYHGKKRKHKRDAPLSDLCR
ΔTm at 10 µM (rPAPD5; [5]) [°C],SMILES,"activity in DC patient iPSCs (TERC maturation) relative to cmpd. 1 ([1]; DC patient iPSCs, higher / more potent than cmpd. 1)",concentration at which telomere elongation was observed [2] [nM],IC50 [3] [nM],ΔTm at 100 µM (rPAPD5; shift vs DMSO control) [°C],concentration showing maturation of TERC 3′ end processing by RACE ([1]; DC patient iPSCs) [nM],minimal effective concentration [1] [µM],minimal effective concentration [2] [µM],ΔTm at 1 µM (rPAPD5) [°C],ΔTm at 10 µM (rPAPD5; [4]) [°C]
,"O=C(O)c1cc(Cl)ccc1Nc1c(S(=O)(=O)N2CCOCC2)cnc2ccc(Cl)cc12 [Compound 266A, 5-chloro-2-[(6-chloro-3-morpholinosulfonyl-4-quinolyl)amino]benzoic acid]",1-2 logs,10,102,> 5,,,,,
,"Cl.O=C(O)c1cc(Cl)ccc1Nc1c(-c2ncco2)cnc2ccc(Cl)cc12 [Compound 295A, 5-chloro-2-[(6-chloro-3-oxazol-2-yl-4-quinolyl)amino]benzoic acid]",,1,318,> 5,1,,,,
,"O=C(O)c1cc(Cl)ccc1Nc1c(S(=O)(=O)N2CCC(F)(F)CC2)cnc2ccc(Cl)cc12 [Compound 345A, 5-chloro-2-[[6-chloro-3-[(4,4-difluoro-1-piperidyl)sulfonyl]-4-quinolyl]amino]benzoic acid]",,,523,> 5,,0.001 to 1,< 0.001,> 5,> 5
,"O=C(O)c1cc(Cl)ccc1Nc1c(S(=O)(=O)N2CCSCC2)cnc2ccc(Cl)cc12 [Compound 349A, 5-chloro-2-[(6-chloro-3-thiomorpholinosulfonyl-4-quinolyl)amino]benzoic acid]",,,160,> 5,,0.001 to 1,< 0.001,> 5,> 5
,"O=C(O)c1cc(Cl)ccc1Nc1c(-c2cnco2)cnc2ccc(Cl)cc12 [Compound 353A, 5-chloro-2-[(6-chloro-3-oxazol-5-yl-4-quinolyl)amino]benzoic acid]",,,438,> 5,,0.001 to 1,< 0.001,1 to 5,> 5
,"CN1CCN(c2cnc3ccc(Cl)cc3c2Nc2ccc(Cl)cc2C(=O)O)CC1 [Compound 361A, 5-chloro-2-[[6-chloro-3-(4-methylpiperazin-1-yl)-4-quinolyl]amino]benzoic acid]",,,311,> 5,,0.001 to 1,< 0.001,> 5,> 5
,"O=C(O)c1cc(Cl)ccc1Nc1c(-c2ccncc2)cnc2ccc(Cl)cc12 [Compound 391A, 5-chloro-2-[[6-chloro-3-(4-pyridyl)-4-quinolyl]amino]benzoic acid]",,,735,> 5,,0.001 to 1,< 0.001,1 to 5,> 5
,"O=C(O)c1cc(Cl)ccc1Nc1c(N2CCC(O)CC2)cnc2ccc(Cl)cc12 [Compound 399A, 5-chloro-2-[[6-chloro-3-(4-hydroxy-1-piperidyl)-4-quinolyl]amino]benzoic acid]",,,,> 5,,< 0.001,< 0.001,> 5,> 5
> 5,"Cc1cc2ncc(S(=O)(=O)N3CCSCC3)c(Nc3ccc(Cl)cc3C(=O)O)c2cc1Cl [Compound 411A, 5-chloro-2-[(6-chloro-7-methyl-3-thiomorpholinosulfonyl-4-quinolyl)amino]benzoic acid]",,,,,,< 0.001,< 0.001,> 5,> 5
> 5,"O=C(O)c1cc(Cl)ccc1Nc1c(S(=O)(=O)N2CCSCC2)cnc2cc(C(F)(F)F)c(Cl)cc12 [Compound 413A, 5-chloro-2-[[6-chloro-3-thiomorpholinosulfonyl-7-(trifluoromethyl)-4-quinolyl]amino]benzoic acid]",,,,,,< 0.001,< 0.001,1 to 5,> 5
> 5,"O=C(O)c1cc(Cl)ccc1Nc1c(S(=O)(=O)N2CCSCC2)cnc2cc(Cl)c(Cl)cc12 [Compound 414A, 5-chloro-2-[(6,7-dichloro-3-thiomorpholinosulfonyl-4-quinolyl)amino]benzoic acid]",,,,,,< 0.001,< 0.001,> 5,> 5
> 5,"O=C(O)c1cc(Cl)ccc1Nc1c(S(=O)(=O)N2CCSCC2)cnc2cc(Br)c(Cl)cc12 [Compound 416A, 2-[(7-bromo-6-chloro-3-thiomorpholinosulfonyl-4-quinolyl)amino]-5-chloro-benzoic acid]",,,,,,< 0.001,< 0.001,> 5,> 5
,"COc1cc(Cl)cc2c(Nc3ccc(Cl)cc3C(=O)O)c(S(=O)(=O)N3CCSCC3)cnc12 [Compound 418A, 5-chloro-2-[(6-chloro-8-methoxy-3-thiomorpholinosulfonyl-4-quinolyl)amino]benzoic acid]",,,112,> 5,,< 0.001,< 0.001,> 5,> 5
,"O=C(O)c1cc(Cl)ccc1Nc1c(S(=O)(=O)N2CCSCC2)cnc2c(C(F)(F)F)cc(Cl)cc12 [Compound 419A, 5-chloro-2-[[6-chloro-3-thiomorpholinosulfonyl-8-(trifluoromethyl)-4-quinolyl]amino]benzoic acid]",,,,< 1,,< 0.001,< 0.001,> 5,> 5
> 5,"O=C(O)c1cc(Cl)ccc1Nc1c(S(=O)(=O)N2CCSCC2)cnc2c(Br)cc(Cl)cc12 [Compound 422A, 2-[(8-bromo-6-chloro-3-thiomorpholinosulfonyl-4-quinolyl)amino]-5-chloro-benzoic acid]",,,,,,< 0.001,< 0.001,> 5,> 5
,"Cc1nc2ccc(Cl)cc2c(Nc2ccc(Cl)cc2C(=O)O)c1S(=O)(=O)N1CCSCC1 [Compound 423A, 5-chloro-2-[(6-chloro-2-methyl-3-thiomorpholinosulfonyl-4-quinolyl)amino]benzoic acid]",,,,> 5,,< 0.001,< 0.001,> 5,> 5

SMILES,ΔTm at 10 µM (rPAPD5; [5]) [°C],"activity in DC patient iPSCs (TERC maturation) relative to cmpd. 1 ([1]; DC patient iPSCs, higher / more potent than cmpd. 1)",concentration at which telomere elongation was observed [2] [nM],IC50 [3] [nM],ΔTm at 100 µM (rPAPD5; shift vs DMSO control) [°C],concentration showing maturation of TERC 3′ end processing by RACE ([1]; DC patient iPSCs) [nM],minimal effective concentration [1] [µM],minimal effective concentration [2] [µM],ΔTm at 1 µM (rPAPD5) [°C],ΔTm at 10 µM (rPAPD5; [4]) [°C]
"O=C(O)c1cc(Cl)ccc1Nc1c(C2=CCSCC2)cnc2ccc(Cl)cc12 [Compound 342A, 5-chloro-2-[[6-chloro-3-(3,6-dihydro-2H-thiopyran-4-yl)-4-quinolyl]amino]benzoic acid]",> 5,,,821,,,< 0.001,< 0.001,> 5,> 5
"O=C(O)c1cc(Cl)ccc1Nc1c(C2CCC(F)(F)CC2)cnc2ccc(Cl)cc12 [Compound 343A, 5-chloro-2-[[6-chloro-3-(4,4-difluorocyclohexyl)-4-quinolyl]amino]benzoic acid]",> 5,,,86,,,< 0.001,< 0.001,> 5,> 5
